Molecules are shown by their SMILES.

What is called IC50 is the concentration that gives 50% inhibition.

In this experiment the target is T1, human αVβ6 (Homo sapiens, UniProt P06756+P18564).
T1 construct: purchased R & D systems 3817-AV
T1 sequence (P06756 31-992 limits assumed): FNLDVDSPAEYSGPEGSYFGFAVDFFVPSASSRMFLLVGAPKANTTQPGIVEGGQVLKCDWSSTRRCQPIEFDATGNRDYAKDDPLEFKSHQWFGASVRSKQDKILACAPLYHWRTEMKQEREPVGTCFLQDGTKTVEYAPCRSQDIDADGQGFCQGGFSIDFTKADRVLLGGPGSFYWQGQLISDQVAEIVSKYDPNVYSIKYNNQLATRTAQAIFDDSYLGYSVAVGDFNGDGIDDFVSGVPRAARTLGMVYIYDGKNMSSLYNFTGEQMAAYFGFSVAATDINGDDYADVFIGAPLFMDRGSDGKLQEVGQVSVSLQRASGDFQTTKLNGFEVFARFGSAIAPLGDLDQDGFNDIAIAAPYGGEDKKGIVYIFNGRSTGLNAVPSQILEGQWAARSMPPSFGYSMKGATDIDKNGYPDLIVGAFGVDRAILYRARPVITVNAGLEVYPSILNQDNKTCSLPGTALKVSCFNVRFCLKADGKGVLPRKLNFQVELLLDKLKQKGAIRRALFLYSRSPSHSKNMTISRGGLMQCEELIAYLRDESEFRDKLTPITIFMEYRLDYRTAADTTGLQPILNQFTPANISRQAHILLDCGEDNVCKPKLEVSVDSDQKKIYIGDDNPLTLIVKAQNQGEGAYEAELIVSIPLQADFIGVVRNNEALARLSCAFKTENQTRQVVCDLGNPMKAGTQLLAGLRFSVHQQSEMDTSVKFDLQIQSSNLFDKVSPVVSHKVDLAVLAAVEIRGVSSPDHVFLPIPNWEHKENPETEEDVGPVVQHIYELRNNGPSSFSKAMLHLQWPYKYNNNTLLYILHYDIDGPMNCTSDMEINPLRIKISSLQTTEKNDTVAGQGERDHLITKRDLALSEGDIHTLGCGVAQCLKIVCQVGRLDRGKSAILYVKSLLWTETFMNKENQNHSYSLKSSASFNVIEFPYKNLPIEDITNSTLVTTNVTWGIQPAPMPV
T1 sequence (P18564 22-707 limits assumed): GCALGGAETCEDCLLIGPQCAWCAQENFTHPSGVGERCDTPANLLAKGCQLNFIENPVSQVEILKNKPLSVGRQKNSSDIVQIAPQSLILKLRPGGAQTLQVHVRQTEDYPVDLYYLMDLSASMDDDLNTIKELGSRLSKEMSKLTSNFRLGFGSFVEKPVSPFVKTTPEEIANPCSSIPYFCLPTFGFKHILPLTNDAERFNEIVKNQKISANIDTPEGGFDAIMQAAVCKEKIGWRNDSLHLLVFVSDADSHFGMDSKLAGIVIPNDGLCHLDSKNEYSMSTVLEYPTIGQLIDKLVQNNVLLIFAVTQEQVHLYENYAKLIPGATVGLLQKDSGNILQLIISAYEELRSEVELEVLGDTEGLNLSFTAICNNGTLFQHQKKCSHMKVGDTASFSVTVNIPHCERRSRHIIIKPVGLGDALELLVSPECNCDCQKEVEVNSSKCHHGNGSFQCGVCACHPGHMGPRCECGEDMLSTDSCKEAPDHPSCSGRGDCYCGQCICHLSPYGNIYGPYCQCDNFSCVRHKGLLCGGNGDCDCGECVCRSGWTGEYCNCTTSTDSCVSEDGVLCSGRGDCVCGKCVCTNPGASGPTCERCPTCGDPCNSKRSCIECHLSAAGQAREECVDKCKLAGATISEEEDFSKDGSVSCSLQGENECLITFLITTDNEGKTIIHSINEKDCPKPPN
Put plainly: human αVβ6 HTRF binding assay. To be noted: recombinant human αVβ6 integrin, FITC-conjugated fibronectin. How it is done:
All binding assays used the HTRF (homogeneous time resolved fluorescence) technology from Cisbio International, therefore all assays are described as HTRF binding assays. The assay results for the Examples are listed above together with the characterization data. The HTRF binding assays are established for the following integrins: human αVβ6, human αVβ1, human αVβ3, human αVβ5, and human αVβ8. All assays used the following assay buffer: 20 mM Tris, pH 7.4, 1 mM MgCl2, 1 mM MnCl2, 0.01% Tween 20, and 0.01% BSA. Alternatively, a SPA-based assay was used for evaluation of receptor binding.
The following describes the components and a representative procedure for the human αVβ6 HTRF binding assay: Recombinant human αVβ6 Integrin (R & D systems, 3817-AV) was biotinylated. Biotinylated human αVβ6 Integrin was added to assay vessel at a final concentration of 1.25 nM. FITC-conjugated fibronectin (Cytoskeleton, FNR02) was then added at the final concentration of 5 nM. The mixture was centrifuged at 600 rpm for three minutes using Thermo Fisher Heraeus Multifuge X3 centrifuge and then incubated at room temperature for an hour. Streptavidin Terbium (Cisbio international 610STLB) was then added at the final concentration of 0.625 nM. The resulting mixture was centrifuged at 600 rpm for three minutes using Thermo Fisher Heraeus Multifuge X3 centrifuge and then incubated at room temperature overnight in dark before reading HTRF signals. […]
(In general: In TR-FRET formats the signal depends on donor and acceptor labels being close together.)
Turning to `Cc1ncc([C@@H](CC(=O)O)n2ncc3cc(OCCc4ccc5c(n4)N[C@H](C)CC5)ccc32)cn1` (single isomer, unassigned) [Example 175], the IC50 was 6000 nM.
As to `Cc1ncc([C@H](CC(=O)O)n2ncc3cc(OCCc4ccc5c(n4)N[C@H](C)CC5)ccc32)cn1` (single isomer, unassigned) [Example 176], the IC50 came out at 33 nM.
The figure for `Cc1ncc([C@@H](CC(=O)O)n2ncc3cc(OCCc4ccc5c(n4)N[C@@H](C)CC5)ccc32)cn1` (single isomer, unassigned) [Example 177] is 5000 nM; for `Cc1ncc([C@H](CC(=O)O)n2ncc3cc(OCCc4ccc5c(n4)N[C@@H](C)CC5)ccc32)cn1` (single isomer, unassigned) [Example 178] it is 110 nM.
The result for `COc1ccc(C(CC(=O)O)n2ncc3c(CCCc4ccc5c(n4)NCCC5)cccc32)cn1` (stereo not drawn) [Example 1, 3-(6-Methoxypyridin-3-yl)-3-(4-(3-(5,6,7,8-tetrahydro-1,8-naphthyridin-2-yl)propyl)-1H-indazol-1-yl)propanoic acid] reads 1600 nM.
The result for `COc1ccc(C(CC(=O)O)n2ncc3cc(CCc4ccc5c(n4)NCCC5)ccc32)cn1` (stereo not drawn) [Example 2, 3-(6-Methoxypyridin-3-yl)-3-(5-(2-(5,6,7,8-tetrahydro-1,8-naphthyridin-2-yl)ethyl)-1H-indazol-1-yl)propanoic acid] reads 110 nM.
Turning to `COc1ccc(C(CC(=O)O)n2ncc3c(OCCc4ccc5c(n4)NCCC5)cccc32)cn1` (stereo not drawn) [Example 3, 3-(6-Methoxypyridin-3-yl)-3-(4-(2-(5,6,7,8-tetrahydro-1,8-naphthyridin-2-yl)ethoxy)-1H-indazol-1-yl)propanoic acid], the IC50 stood at 2300 nM.
The figure for `O=C(N[C@@H](Cn1cc2cc(OCCc3ccc4c(n3)NCCC4)ccc2n1)C(=O)O)OCc1ccccc1` [Example 4, (S)-2-(((Benzyloxy)carbonyl)amino)-3-(5-(2-(5,6,7,8-tetrahydro-1,8-naphthyridin-2-yl)ethoxy)-2H-indazol-2-yl)propanoic acid] is 21 nM.
Take `O=C(O)CC(c1ccccc1)n1ncc2cc(OCCCc3ccc4c(n3)NCCC4)ccc21` (stereo not drawn) [Example 5, 3-Phenyl-3-(5-(3-(5,6,7,8-tetrahydro-1,8-naphthyridin-2-yl)propoxy)-1H-indazol-1-yl)propanoic acid]: the IC50 is 440 nM.
The result for `COc1ccc([C@H](CC(=O)O)n2cc3cc(OCCc4ccc5c(n4)NCCC5)ccc3n2)cn1` [Example 6, (S)-3-(6-Methoxypyridin-3-yl)-3-(5-(2-(5,6,7,8-tetrahydro-1,8-naphthyridin-2-yl)ethoxy)-2H-indazol-2-yl)propanoic acid] reads 600 nM; that for `COc1ccc([C@H](CC(=O)O)n2cc3ccc(CCc4ccc5c(n4)NCCC5)cc3n2)cn1` [Example 7, (S)-3-(6-Methoxypyridin-3-yl)-3-(6-(2-(5,6,7,8-tetrahydro-1,8-naphthyridin-2-yl)ethyl)-2H-indazol-2-yl)propanoic acid], 6.6 nM.
For the compound `COc1ccc([C@H](CC(=O)O)n2cc3ccc(Cc4cc5c(nc4C)NCCC5)cc3n2)cn1` [Example 8, (S)-3-(6-Methoxypyridin-3-yl)-3-(6-((2-methyl-5,6,7,8-tetrahydro-1,8-naphthyridin-3-yl)methyl)-2H-indazol-2-yl)propanoic acid], the IC50 stood at 390 nM.
On to `COc1ccc([C@H](CC(=O)O)n2cc3ccc(CCCc4ccc5c(n4)NCCC5)cc3n2)cn1` [Example 9, (S)-3-(6-Methoxypyridin-3-yl)-3-(6-(3-(5,6,7,8-tetrahydro-1,8-naphthyridin-2-yl)propyl)-2H-indazol-2-yl)propanoic acid], for which the IC50 was determined as 2.6 nM.
The result for `COc1ccc([C@H](CC(=O)O)n2cc3ccc(CCc4cc5c(nc4C)NCCC5)cc3n2)cn1` [Example 10, (S)-3-(6-Methoxypyridin-3-yl)-3-(6-(2-(2-methyl-5,6,7,8-tetrahydro-1,8-naphthyridin-3-yl)ethyl)-2H-indazol-2-yl)propanoic acid] reads 160 nM.
The figure for `COc1ccc(C(CC(=O)O)n2ncc3nc(OCCc4ccc5c(n4)NCCC5)ccc32)cn1` (stereo not drawn) [Example 11, 3-(6-Methoxypyridin-3-yl)-3-(5-(2-(5,6,7,8-tetrahydro-1,8-naphthyridin-2-yl)ethoxy)pyrazolo[4,3-b]pyridin-1-yl)propanoic acid] is 120 nM; for `COc1ccc(C(CC(=O)O)n2ncc3cc(OCCNC4=NCCN4)ccc32)cn1` (stereo not drawn) [Example 12, 3-(5-(2-((4,5-Dihydroimidazol-2-yl)amino)ethoxy)-1H-indazol-1-yl)-3-(6-methoxypyridin-3-yl)propanoic acid] it is 2000 nM; for `Cc1cc(C)c(S(=O)(=O)NC(Cn2ncc3cc(OCCc4ccc5c(n4)NCCC5)ccc32)C(=O)O)c(C)c1` (stereo not drawn) [Example 13, 3-(5-(2-(5,6,7,8-Tetrahydro-1,8-naphthyridin-2-yl)ethoxy)-1H-indazol-1-yl)-2-((2,4,6-trimethylphenyl)sulfonamido)propanoic acid] it is 320 nM.
For the compound `O=C(NC(Cn1ncc2cc(OCCc3ccc4c(n3)NCCC4)ccc21)C(=O)O)OCc1ccccc1` (stereo not drawn) [Example 14, 2-(((Benzyloxy)carbonyl)amino)-3-(5-(2-(5,6,7,8-tetrahydro-1,8-naphthyridin-2-yl)ethoxy)-1H-indazol-1-yl)propanoic acid], the IC50 stood at 300 nM.
The figure for `O=C(O)C[C@H](c1cnc2ccccc2n1)n1ncc2cc(OCCc3ccc4c(n3)NCCC4)ccc21` [Example 16, (R)-3-(Quinoxalin-2-yl)-3-(5-(2-(5,6,7,8-tetrahydro-1,8-naphthyridin-2-yl)ethoxy)-1H-indazol-1-yl)propanoic acid] is 137 nM.
Consider `O=C(O)CC(c1cc(Cl)cc(Cl)c1)n1ncc2c(CCCc3ccc4c(n3)NCCC4)cccc21` (stereo not drawn) [Example 18, 3-(3,5-Dichlorophenyl)-3-(4-(3-(5,6,7,8-tetrahydro-1,8-naphthyridin-2-yl)propyl)-1H-indazol-1-yl)propanoic acid], for which the IC50 was 2700 nM.
The figure for `O=C(O)CC(c1cnc2ccccc2n1)n1ncc2c(CCCc3ccc4c(n3)NCCC4)cccc21` (stereo not drawn) [Example 19, 3-(Quinoxalin-2-yl)-3-(4-(3-(5,6,7,8-tetrahydro-1,8-naphthyridin-2-yl)propyl)-1H-indazol-1-yl)propanoic acid] is 220 nM; for `COc1ccc(C(CC(=O)O)n2ncc3cc(CCCc4ccc5c(n4)NCCC5)ccc32)cn1` (stereo not drawn) [Example 20, 3-(6-Methoxypyridin-3-yl)-3-(5-(3-(5,6,7,8-tetrahydro-1,8-naphthyridin-2-yl)propyl)-1H-indazol-1-yl)propanoic acid] it is 70 nM; for `O=C(O)CC(c1cc(Cl)cc(Cl)c1)n1ncc2cc(CCCc3ccc4c(n3)NCCC4)ccc21` (stereo not drawn) [Example 21, 3-(3,5-Dichlorophenyl)-3-(5-(3-(5,6,7,8-tetrahydro-1,8-naphthyridin-2-yl)propyl)-1H-indazol-1-yl)propanoic acid] it is 44 nM.
The figure for `O=C(O)CC(c1cnc2ccccc2n1)n1ncc2cc(CCCc3ccc4c(n3)NCCC4)ccc21` (stereo not drawn) [Example 22, 3-(Quinoxalin-2-yl)-3-(5-(3-(5,6,7,8-tetrahydro-1,8-naphthyridin-2-yl)propyl)-1H-indazol-1-yl)propanoic acid] is 190 nM; for `CN(C)C(=O)c1cccc(C(CC(=O)O)n2ncc3cc(CCCc4ccc5c(n4)NCCC5)ccc32)c1` (stereo not drawn) [Example 23, 3-(3-(Dimethylcarbamoyl)phenyl)-3-(5-(3-(5,6,7,8-tetrahydro-1,8-naphthyridin-2-yl)propyl)-1H-indazol-1-yl)propanoic acid] it is 61 nM.
On to `CN(C)C(=O)c1cccc(C(CC(=O)O)n2ncc3cc(CCc4ccc5c(n4)NCCC5)ccc32)c1` (stereo not drawn) [Example 24, 3-(3-(Dimethylcarbamoyl)phenyl)-3-(5-(2-(5,6,7,8-tetrahydro-1,8-naphthyridin-2-yl)ethyl)-1H-indazol-1-yl)propanoic acid], for which the IC50 stood at 130 nM.
With `O=C(O)CC(c1ccc2c(c1)oc1ccccc12)n1ncc2cc(CCc3ccc4c(n3)NCCC4)ccc21` (stereo not drawn) [Example 25, 3-(Dibenzo[b,d]furan-3-yl)-3-(5-(2-(5,6,7,8-tetrahydro-1,8-naphthyridin-2-yl)ethyl)-1H-indazol-1-yl)propanoic acid], the IC50 is 530 nM.
The result for `CN(C)Cc1cccc(C(CC(=O)O)n2ncc3cc(CCc4ccc5c(n4)NCCC5)ccc32)c1` (stereo not drawn) [Example 26, 3-(3-((Dimethylamino)methyl)phenyl)-3-(5-(2-(5,6,7,8-tetrahydro-1,8-naphthyridin-2-yl)ethyl)-1H-indazol-1-yl)propanoic acid] reads 120 nM.
The figure for `O=C(O)CC(c1cnc2ccccc2n1)n1ncc2cc(CCc3ccc4c(n3)NCCC4)ccc21` (stereo not drawn) [Example 27, 3-(Quinoxalin-2-yl)-3-(5-(2-(5,6,7,8-tetrahydro-1,8-naphthyridin-2-yl)ethyl)-1H-indazol-1-yl)propanoic acid] is 240 nM; for `O=C(O)CC(c1cc(Cl)cc(Cl)c1)n1ncc2cc(CCc3ccc4c(n3)NCCC4)ccc21` (stereo not drawn) [Example 28, 3-(3,5-Dichlorophenyl)-3-(5-(2-(5,6,7,8-tetrahydro-1,8-naphthyridin-2-yl)ethyl)-1H-indazol-1-yl)propanoic acid] it is 210 nM.
